The record followed here is patent publication EP0326640B1, “(1R,5S,6S)-2-substituted thio-6 (R)-1-hydroxyethyl -1-methyl-carbapenem - carboxylic acid derivatives” (LEDERLE (JAPAN) LTD., priority 1987, dated 1989).

Converted amounts (≈) assume the structure as drawn.

In test [1] the target is T1, Swine Kidney Dehydropeptidase-I (DHP-I) (Sus scrofa, UniProt P22412).
T1 construct: made soluble by treatment with butanol and purified by the ammonium sulfate fraction method, thereby producing DHP-I enzyme from a 75% ammonium sulfate fraction; from tissue; host or cells: swine kidney
T1 sequence (P22412 17-384): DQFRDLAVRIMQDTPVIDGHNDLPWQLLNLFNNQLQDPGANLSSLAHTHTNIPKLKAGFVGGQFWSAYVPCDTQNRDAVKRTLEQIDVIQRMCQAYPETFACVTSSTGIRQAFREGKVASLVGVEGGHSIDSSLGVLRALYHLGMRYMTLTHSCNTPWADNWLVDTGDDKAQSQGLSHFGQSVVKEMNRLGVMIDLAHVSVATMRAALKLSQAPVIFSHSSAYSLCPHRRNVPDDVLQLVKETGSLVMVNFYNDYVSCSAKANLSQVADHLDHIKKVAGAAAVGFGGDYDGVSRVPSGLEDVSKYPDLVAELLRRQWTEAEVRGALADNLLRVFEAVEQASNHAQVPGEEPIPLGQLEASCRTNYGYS
Put plainly: Hydrolysis activity against DHP-I enzyme substrate by late assay. It counts as in vitro ADME. As to conditions: substrate concentration 100 µM, 37°C, 10 minutes. The protocol:
The swine kidney (8 kg) was homogenized and the enzyme protein was allowed to precipitate. After a connective lipid was removed with acetone, the resultant material was made soluble by treatment with butanol and purified by the ammonium sulfate fraction method, thereby producing DHP-I enzyme from a 75% ammonium sulfate fraction. The DHP-I enzyme was then adjusted to give an enzyme concentration of 25 mg/10 ml (phosphate buffer, pH 7.1), and divided into 1 ml portions. The portions were frozen and stored at -40°C or less until use. Glycyl dehydrophenylalanine (Gl-dh-Ph) and imipenem were employed as control compounds, and they were adjusted in situ each to give a concentration of 117 µM with the same sodium phosphate buffer solution. […] The solution was then incubated at 37°C for 10 minutes. The initial velocity of hydrolysis of the substrate was measured from a decrease in absorbency at a particular λmax of each of the substrates. A blank test was conducted in substantially the same manner as above by adding 0.2 ml of the sodium phosphate buffer solution (pH 7.1) to 1.2 ml of the above substrate.

The test system of test [2] is Salmonella typhi 901. Put plainly: Antibacterial test, agar plate dilution method (MIC), standard strains. The class given is cell-based. The conditions noted are these: Salmonella enterica, TYPHI, 18 h, MH agar, 37°C. The protocol:
(§1) The antibacterial activities were tested by an agar plate dilution method in accordance with the standard method of The Japanese Chemotherapy Society [Chemotherapy, Vol. 29, 76-79 (1981)].
(§2) A Mueller-Hinton (MH) agar liquid medium of a test microorganism was cultured overnight at 37°C and the resultant culture medium was diluted with a buffered saline gelatin (BSG) solution to contain approximately 10⁶ cells of the test microorganisms per milliliter, and then the diluted solution was inoculated with a microplanter at the rate of approximately 5 microliters on a MH agar medium containing a test compound. This medium was then incubated at 37°C for 18 hours. The minimum inhibitory concentration (MIC) is determined as a minimum concentration in which no test microorganism could grow. It is noted here that the test organisms used were all standard strains.

In test [3] the test system is Morganella morganii IFO3848. The description is as above. The class given is cell-based. The conditions noted are these: Morganella morganii, IFO3848, 18 h, MH agar, 37°C, read-out: MIC. The protocol: as §1, §2
Test [4] deals with Pseudomanas aeruginosa NCTC 10940. The description is as above. It counts as cell-based. The conditions noted are these: 18 h, MH agar, 37°C, read-out: MIC. The protocol:
as §1, §2

Test [5] has as its system Proteus vulgaris OX-19. The test is described as above. The class given is cell-based. As to conditions: OX19; Proteus vulgaris OX-19; MH agar, 37°C, 18 hours; read-out: MIC. The protocol:
as §1, §2

The subject of test [6] is Proteus vulgaris HX-19. Described as above. It counts as cell-based. As to conditions: HX19; Proteus vulgaris HX-19; MH agar, 37°C, 18 hours; read-out: MIC. The protocol:
as §1, §2

In test [7] the test system is Salmonella paratyphi 1015. Described as above. It counts as cell-based. As to conditions: Salmonella enterica, MH agar, 37°C, 18 hours, read-out: MIC. The protocol:
as §1, §2

The subject of test [8] is Providencia rettgeri IFO 3850. The description is as above. It counts as cell-based. As to conditions: Providencia rettgeri, IFO3850, 18 h, MH agar, 37°C, read-out: MIC. The protocol:
as §1, §2

In test [9] the test system is Serratia marcescens IAM1184. The description is as above. The class given is cell-based. The conditions noted are these: Serratia marcescens, IAM1184, 18 h, MH agar, 37°C, read-out: MIC. The protocol: as §1, §2
The subject of test [10] is Proteus mirabilis IFO3849. Described as above. It counts as cell-based. As to conditions: Proteus mirabilis, IFO3849, 18 h, Proteus mirabilis IFO3849; MH agar, 37°C, 18 hours; read-out: MIC. The protocol:
as §1, §2

Test [11] deals with Salmonella schottmuelleri 8006. The test is described as above. The class given is cell-based. As to conditions: MH agar, 37°C, 18 hours, read-out: MIC. The protocol: as §1, §2
Test [12] deals with Pseudomonas aeruginosa IFO 3445. Described as above. It counts as cell-based. As to conditions: IFO3445, MH agar, 37°C, 18 hours, read-out: MIC. The protocol: as §1, §2
The subject of test [13] is Salmonella enteritidis G14. The test is described as above. It counts as cell-based. The conditions noted are these: Salmonella enterica, MH agar, 37°C, 18 hours, read-out: MIC. The protocol:
as §1, §2

In test [14] the test system is Klebsiella oxytoca GN 10650. Put plainly: Antibacterial activity against clinically isolated β-lactamase (cephalosporinase) producing strains (MIC). It counts as cell-based. As to conditions: Klebsiella oxytoca, GN10650, Klebsiella oxytoca GN 10650; cephalosporinase producing strain, SDA, 18 to 20 hours; read-out: MIC. The protocol:
(§3) The antibacterial activities against clinically isolated β-lactamase producing strains were tested by the agar plate dilution method in accordance with the standard method of The Japanese Chemotherapy Society [Chemotherapy, Vol. 29, 76-79 (1981)]. A solution of a cephalosporinase producing strain stored by Episome Research Institute, prepared by incubating the strain in a sensitivity test broth (STB; product of Nissui K. K.) for 18 hours, was diluted with a fresh STB solution so that the solution contained 10⁶ cells per milliliter. The diluted solution was then inoculated as spots in a microplanter on a sensitivity disk agar-N (SDA; product of Nissui K. K.) containing a test compound. The disk agar was then incubated for 18 to 20 hours. The minimum inhibitory concentration was determined as a minimum concentration in which the test microorganism no longer grew after a 18 to 20-hour incubation.

For test [15], the system named is Pseudomonas aeruginosa GN 10362. The test is described as above. It counts as cell-based. The conditions noted are these: GN10362, cephalosporinase producing strain, SDA, 18 to 20 hours, read-out: MIC. The protocol:
as §3

For test [16], the system named is Pseudomonas aeruginosa GN 918. The test is described as above. The class given is cell-based. As to conditions: GN918; Pseudomonas aeruginosa GN 918; cephalosporinase producing strain, SDA, 18 to 20 hours; read-out: MIC. The protocol: as §3
The test system of test [17] is Proteus vulgaris GN 4413. The test is described as above. It counts as cell-based. The conditions noted are these: Proteus vulgaris, GN4413, Proteus vulgaris GN 4413; cephalosporinase producing strain, SDA, 18 to 20 hours; read-out: MIC. The protocol: as §3
Test [18] concerns Serratia marcescens L-82. Described as above. The class given is cell-based. The conditions noted are these: L82, cephalosporinase producing strain, SDA, 18 to 20 hours, read-out: MIC. The protocol: as §3
The test system of test [19] is Pseudomonas aeruginosa GN 10367. The test is described as above. It counts as cell-based. As to conditions: GN10367; Pseudomonas aeruginosa GN 10367; cephalosporinase producing strain, SDA, 18 to 20 hours; read-out: MIC. The protocol: as §3
The subject of test [20] is Serratia marcescens GN 10857. Described as above. It counts as cell-based. As to conditions: Serratia marcescens, GN10857, Serratia marcescens GN 10857; cephalosporinase producing strain, SDA, 18 to 20 hours; read-out: MIC. The protocol:
as §3

The subject of test [21] is Pseudomonas cepacia GN 11164. The description is as above. It counts as cell-based. The conditions noted are these: Burkholderia cepacia, GN11164, cephalosporinase producing strain, SDA, 18 to 20 hours, read-out: MIC. The protocol: as §3
For test [22], the system named is Proteus vulgaris GN 7919. The test is described as above. The class given is cell-based. The conditions noted are these: Proteus vulgaris, GN7919, Proteus vulgaris GN 7919; cephalosporinase producing strain, SDA, 18 to 20 hours; read-out: MIC. The protocol:
as §3

Test [23] relates to Citrobactor freundii GN 346. Described as above. It counts as cell-based. As to conditions: cephalosporinase producing strain, SDA, 18 to 20 hours. The protocol: as §3
The subject of test [24] is Serratia marcescens L-65. The test is described as above. It counts as cell-based. The conditions noted are these: Serratia marcescens, L65, Serratia marcescens L-65; cephalosporinase producing strain, SDA, 18 to 20 hours; read-out: MIC. The protocol:
as §3

In test [25] the test system is Citrobactor freundii GN 7391. Described as above. The class given is cell-based. As to conditions: cephalosporinase producing strain, SDA, 18 to 20 hours. The protocol: as §3

`NCC(=O)NC(=Cc1ccccc1)C(=O)O` [Gl-dh-Ph, Glycyl dehydrophenylalanine]: the “initial velocity of hydrolysis” value in [1] is 17.4 µM/min.

As to `Cc1nnc(SCC2=C(C(=O)O)N3C(=O)[C@@H](NC(=O)Cn4cnnn4)[C@H]3SC2)s1` [CEZ, cefazolin], the MIC (as a rule, the least concentration at which growth counts as inhibited) in test [2] was 0.78 µg/mL (≈ 1.72 µM); in test [3], 25 µg/mL (≈ 55 µM); in test [4] it was more than 100 µg/mL; in test [5], 6.25 µg/mL (≈ 13.8 µM); in test [6], 6.25 µg/mL (≈ 13.8 µM); in [7], 1.56 µg/mL (≈ 3.43 µM). The MIC in test [8] was 12.5 µg/mL (≈ 27.5 µM); in test [9], more than 100 µg/mL; in [10] it was 6.25 µg/mL (≈ 13.8 µM); in test [11] it was 0.78 µg/mL (≈ 1.72 µM); in test [12], more than 100 µg/mL; in test [13], 0.78 µg/mL (≈ 1.72 µM). In addition, the MIC in test [14] was found to be 0.2 µg/mL (≈ 0.44 µM); in test [15] it was 3.13 µg/mL (≈ 6.89 µM); in test [16], 6.25 µg/mL (≈ 13.8 µM); in test [17], 0.2 µg/mL (≈ 0.44 µM); in [18], 0.39 µg/mL (≈ 0.858 µM); in test [19] it was 3.13 µg/mL (≈ 6.89 µM). The MIC in test [20] was 0.78 µg/mL (≈ 1.72 µM); in test [21], 0.78 µg/mL (≈ 1.72 µM); in test [22], 3.13 µg/mL (≈ 6.89 µM); in test [23], 25 µg/mL (≈ 55 µM); in test [24], 0.2 µg/mL (≈ 0.44 µM); in test [25], more than 100 µg/mL.
